Experimental data reported in ChEMBL document CHEMBL1201862, “PubChem BioAssay data set” (2004).
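Results reflect a 48-hour exposure of cells in 96-well plates to compound at five concentrations. GI50: concentration for 50% inhibition of growth.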 The source made the active and inactive calls. Rule as the data show it: active = GI50 up to about 1.1 µM and inactive = higher.

Assays:
Assay in all cases: NCI tumour cell line growth inhibition, 48 h
[1] = system: OVCAR-5
[2] = system: HL-60
[3] = system: SK-MEL-28
[4] = system: MCF7
[5] = system: COLO 205
[6] = system: KM12
[7] = system: MOLT-4
[8] = system: MDA-N
[9] = system: U-251
[10] = system: HCC 2998
[11] = system: SR
[12] = system: UO-31
[13] = system: NCI/ADR-RES
[14] = system: HCT-116
[15] = system: MDA-MB-435
[16] = system: Malme-3M
[17] = system: T47D
[18] = system: M14
[19] = system: NCI-H23
[20] = system: IGROV-1
[21] = system: ACHN
[22] = system: SF-295
[23] = system: OVCAR-8
[24] = system: A549
[25] = system: SN12C
[26] = system: SK-MEL-5
[27] = system: OVCAR-4
[28] = system: K562
[29] = system: BT-549
[30] = system: MDA-MB-231
[31] = system: SNB-75
[32] = system: SW-620
[33] = system: SK-MEL-2
[34] = system: EKVX
[35] = system: 786-0
[36] = system: SK-OV-3
[37] = system: LOX IMVI
[38] = system: TK-10
[39] = system: RXF 393
[40] = system: SNB-19
[41] = system: DU-145
[42] = system: HT-29
[43] = system: CCRF-CEM
[44] = system: Hs-578T
[45] = system: NCI-H522
[46] = system: RPMI-8226
[47] = system: HCT-15
[48] = system: SF-268
[49] = system: HOP-62
[50] = system: HOP-92
[51] = system: NCI-H226
[52] = system: UACC-257
[53] = system: PC-3
[54] = system: SF-539
[55] = system: NCI-H460
[56] = system: UACC-62
[57] = system: OVCAR-3

Compound: CCOC(=O)C(=O)C(=O)NN(C)C1=NCCN1
- GI50 [1]: > 100 µM (inactive)
- GI50 [2]: > 100 µM (inactive)
- GI50 [3]: > 100 µM (inactive)
- GI50 [4]: > 100 µM (inactive)
- GI50 [5]: > 100 µM (inactive)
- GI50 [6]: > 100 µM (inactive)
- GI50 [7]: > 100 µM (inactive)
- GI50 [8]: > 100 µM (inactive)
- GI50 [9]: > 100 µM (inactive)
- GI50 [10]: > 100 µM (inactive)
- GI50 [11]: > 100 µM (inactive)
- GI50 [12]: > 100 µM (inactive)
- GI50 [13]: > 100 µM (inactive)
- GI50 [14]: > 100 µM (inactive)
- GI50 [15]: > 100 µM (inactive)
- GI50 [16]: > 100 µM (inactive)
- GI50 [17]: > 100 µM (inactive)
- GI50 [18]: > 100 µM (inactive)
- GI50 [19]: > 100 µM (inactive)
- GI50 [20]: > 100 µM (inactive)
- GI50 [21]: > 100 µM (inactive)
- GI50 [22]: > 100 µM (inactive)
- GI50 [23]: > 100 µM (inactive)
- GI50 [24]: > 100 µM (inactive)
- GI50 [25]: > 100 µM (inactive)
- GI50 [26]: > 100 µM (inactive)
- GI50 [27]: > 100 µM (inactive)
- GI50 [28]: > 100 µM (inactive)
- GI50 [29]: > 100 µM (inactive)
- GI50 [30]: > 100 µM (inactive)
- GI50 [31]: > 100 µM (inactive)
- GI50 [32]: > 100 µM (inactive)
- GI50 [33]: > 100 µM (inactive)
- GI50 [34]: > 100 µM (inactive)
- GI50 [35]: > 100 µM (inactive)
- GI50 [36]: > 100 µM (inactive)
- GI50 [37]: > 100 µM (inactive)
- GI50 [38]: > 100 µM (inactive)
- GI50 [39]: > 100 µM (inactive)
- GI50 [40]: > 100 µM (inactive)
- GI50 [41]: > 100 µM (inactive)
- GI50 [42]: > 100 µM (inactive)
- GI50 [43]: > 100 µM (inactive)
- GI50 [44]: > 100 µM (inactive)
- GI50 [45]: > 100 µM (inactive)
- GI50 [46]: > 100 µM (inactive)
- GI50 [47]: > 100 µM
- GI50 [48]: > 100 µM (inactive)
- GI50 [49]: > 100 µM (inactive)
- GI50 [50]: > 100 µM (inactive)
- GI50 [51]: > 100 µM (inactive)
- GI50 [52]: > 100 µM (inactive)
- GI50 [53]: > 100 µM (inactive)
- GI50 [54]: > 100 µM (inactive)
- GI50 [55]: > 100 µM (inactive)
- GI50 [56]: > 100 µM (inactive)
- GI50 [57]: > 100 µM (inactive)
